“Also recorded” adds a separate entry of the source.
Tests used:
IKZF2 = IKZF2 (Homo sapiens, UniProt Q96SW2+Q9UKS7); test: Degradation of prolabel-tagged target proteins in HEK293T cells (FIG. 1); type: cell-based; parameters: prolabel; expressed in transfected cells; host or cells: HEK293T; settings: HEK293T cells overexpressing prolabel-tagged target proteins; various concentrations
From the text: FIG. 1. is a graph showing the selectivity of Compound I-57 for the degradation of IKZF2 over the other IKAROS family members, IKZF1, IKZF4, and GSPT1 at various concentrations in HEK293T cells overexpressing prolabel-tagged target proteins.
Although the specific transcriptional targets of IKZF2 remain to be defined, IKZF2 binds to and represses transcription from the IL-2 promoter region (Baine 2013). […] Finally, an in vitro assay recapitulating hallmarks of T cell dysfunction/exhaustion, by sequential TCR stimulation of isolated primary human T cells, was used to test the hypothesis that […] would rescue the exhausted phenotype and enhance Teff cell activity. […] In addition to IKZF1, other known cereblon substrates including translation termination factor G1 to S phase transition 1 (GSPT1) are not degraded by I-57 (FIG. 1).

[1] = In vivo non-clinical PK / high dose PK and toxicology exposure; parameters: species or system cynomolgus monkey; settings: monkey
Procedure: The in vivo non-clinical PK profile of I-57 was investigated in mouse, rat, dog and cynomolgus monkey using I-57 free base. […] After p.o. administration, the absorption of I-57 was rapid with peak blood concentration (Tmax) occurring between 1 and 4 hours. […] In high dose PK and toxicology studies with I-57 the exposures in mouse, rat and monkey increased with dose.

[2] = Toxicology studies incl. 4-week GLP studies in rats and cynomolgus monkeys; type: in vivo; settings: from 4-week GLP toxicology studies in rats (30, 100, 300 mg/kg/day) and cynomolgus monkeys (3, 10, 30 mg/kg/day)
From the text: (§1) The non-clinical safety profile of I-57 was established in vitro, and in vivo in rats and cynomolgus monkeys in studies up to 4-weeks duration. Based on the outcome of these studies, QTc interval prolongation was identified as the principal safety signal for I-57. There were other toxicities such as diarrhea and vomiting in monkeys, and mortality, clinical signs and target organ toxicities in rats; however, these occurred at exposures far above those expected to result in clinical activity.
Preclinical safety data in 4-week GLP toxicology studies in rats (30, 100 and 300 mg/kg/day) and cynomolgus monkeys (3, 10 and 30 mg/kg/day) provide maximum recommended starting dose (MRSD) of 100 mg in humans. Based on non-clinical animal models including AdT studies, cynomolgus vaccination studies and cynomolgus PK/PD studies (See Example 1) I-57 at 20 mg is expected to result in submaximal IKZF2 degradation in PBMCs and tumor. This is considered safe and will permit PK/PD characterization and determination of the lowest dose of I-57 at which maximal detectable IKZF2 degradation is achieved.

[3] = Toxicology in rats (5-day and 4-week GLP studies); type: in vivo
From the text: as §1
Clinical signs, decreases in body weight and food consumption, and clinical pathology changes reflecting inflammation, renal and liver injury, and stress were generally evident in the pre-terminal animals. Kidney toxicity was evident in rats at doses >100 mg/kg/day and was characterized by increased weight, hematuria, proteinuria, with or without increased blood urea and creatinine, degeneration, regeneration and inflammation at 300 mg/kg/day.
Similar exposure in the clinic would require doses in human of approximately 2,000 and 5,000 mg QD based on the human PK model. Activity is anticipated well below this dose level.

[4] = In vitro metabolism in liver microsomes and hepatocytes across species; type: in vitro ADME
[5] = PK after repeated daily oral dosing in immunized cynomolgus monkeys (Table 15); type: in vivo, cynomolgus monkey; settings: for AUC0-24 (unbound) / AUC0-24/D (unbound) / Cmax (unbound) / Cmax/D (unbound): cynomolgus monkey
Procedure: The PK/PD relationship of I-57 was further examined in cynomolgus monkeys after repeated daily oral doses of 0.1 and 3 mg/kg. In this study, a cohort of animals were initially immunized with an antigen-adjuvant mixture (KLH/Squalene). The experiment was designed to assess the effect of I-57 exposure, and the resulting IKZF2 degradation, on immune response during immunization to test the hypothesis that IKZF2 degradation would result in increased proliferation of stimulated T-cells. In the experiment, daily I-57 oral treatment was initiated 5 days after immunization. An immunization booster dose was administered on day 15. I-57 plasma concentration and IKZF2 expression (as determined by flow cytometry) in FOXP3+ T cells from PBMCs were determined (FIG. 9A and FIG. 9B).
Exposure levels for 3 mg/kg in cynomolgus monkeys are anticipated to correspond to ˜100 mg QD in humans.

[6] = PK after single oral dose in cynomolgus monkey (FIG. 4, FIG. 5, Table 13); type: in vivo; settings: for AUC24 h (unbound) / AUC24 h/Dose (unbound) / Cmax (unbound) / Cmax/Dose (unbound): cynomolgus monkey, unbound exposure, n = 3, mean ± SD
Procedure: FIG. 4 is a graph showing the PK/PD relationship in the cynomolgus monkey after a single oral of 0.01, 0.1 or 1 mg/kg of Compound I-57.
FIG. 5. is a graph showing plasma concentration in the cynomolgus monkey of Compound I-57 and IKZF2 expression (as determined by flow cytometry) in FOXP3+ T cells from PBMCs after a single oral of 0.01, 0.1 or 1 mg/kg of Compound I-57.
The PK/PD relationship of I-57 was examined in cynomolgus monkeys after a single oral dose of 0.01, 0.1 or 1 mg/kg. I-57 plasma concentration and IKZF2 expression (as determined by flow cytometry) in FOXP3+ T cells from PBMCs were determined (FIG. 4 and FIG. 5).

[7] = Day 5, Group 2 (only I-57), 0.1 mg/kg/day oral
[8] = Day 5, Group 4 (I-57 + KLH + adjuvant), 0.1 mg/kg/day oral
[9] = Day 5, Group 5 (I-57 + KLH + adjuvant), 3 mg/kg/day oral
[10] = Day 29, Group 2 (only I-57), 0.1 mg/kg/day oral
[11] = Day 29, Group 4 (I-57 + KLH + adjuvant), 0.1 mg/kg/day oral
[12] = Day 29, Group 5 (I-57 + KLH + adjuvant), 3 mg/kg/day oral

Sequence of IKZF2 (Q9UKS7 whole entry): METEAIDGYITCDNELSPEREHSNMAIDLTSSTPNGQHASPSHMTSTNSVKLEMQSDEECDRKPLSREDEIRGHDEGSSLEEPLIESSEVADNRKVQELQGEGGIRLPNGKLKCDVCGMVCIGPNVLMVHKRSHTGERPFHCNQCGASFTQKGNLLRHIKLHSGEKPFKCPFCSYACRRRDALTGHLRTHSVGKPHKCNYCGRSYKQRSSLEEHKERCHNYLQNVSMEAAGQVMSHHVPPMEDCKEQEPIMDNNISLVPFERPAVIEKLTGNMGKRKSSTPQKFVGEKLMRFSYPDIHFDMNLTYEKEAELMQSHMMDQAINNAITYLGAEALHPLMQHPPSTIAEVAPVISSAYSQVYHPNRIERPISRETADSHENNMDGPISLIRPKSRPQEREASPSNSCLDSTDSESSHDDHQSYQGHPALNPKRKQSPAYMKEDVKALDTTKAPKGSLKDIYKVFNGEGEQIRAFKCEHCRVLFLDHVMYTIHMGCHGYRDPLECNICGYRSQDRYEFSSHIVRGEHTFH
Sequence of IKZF2 (Q96SW2 whole entry): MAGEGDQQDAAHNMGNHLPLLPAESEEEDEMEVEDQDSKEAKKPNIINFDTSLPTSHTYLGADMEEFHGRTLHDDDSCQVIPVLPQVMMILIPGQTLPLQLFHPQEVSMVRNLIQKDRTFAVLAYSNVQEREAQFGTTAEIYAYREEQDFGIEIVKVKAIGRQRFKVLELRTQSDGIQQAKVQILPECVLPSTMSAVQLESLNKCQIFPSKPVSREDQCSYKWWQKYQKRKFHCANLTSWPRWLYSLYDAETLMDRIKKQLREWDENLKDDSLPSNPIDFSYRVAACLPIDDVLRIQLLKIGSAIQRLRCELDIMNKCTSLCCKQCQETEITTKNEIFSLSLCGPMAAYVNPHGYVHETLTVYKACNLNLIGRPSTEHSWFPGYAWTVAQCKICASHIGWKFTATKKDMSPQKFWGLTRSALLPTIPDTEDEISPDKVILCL
Sequence of IKZF2 (Q16531 whole entry partner): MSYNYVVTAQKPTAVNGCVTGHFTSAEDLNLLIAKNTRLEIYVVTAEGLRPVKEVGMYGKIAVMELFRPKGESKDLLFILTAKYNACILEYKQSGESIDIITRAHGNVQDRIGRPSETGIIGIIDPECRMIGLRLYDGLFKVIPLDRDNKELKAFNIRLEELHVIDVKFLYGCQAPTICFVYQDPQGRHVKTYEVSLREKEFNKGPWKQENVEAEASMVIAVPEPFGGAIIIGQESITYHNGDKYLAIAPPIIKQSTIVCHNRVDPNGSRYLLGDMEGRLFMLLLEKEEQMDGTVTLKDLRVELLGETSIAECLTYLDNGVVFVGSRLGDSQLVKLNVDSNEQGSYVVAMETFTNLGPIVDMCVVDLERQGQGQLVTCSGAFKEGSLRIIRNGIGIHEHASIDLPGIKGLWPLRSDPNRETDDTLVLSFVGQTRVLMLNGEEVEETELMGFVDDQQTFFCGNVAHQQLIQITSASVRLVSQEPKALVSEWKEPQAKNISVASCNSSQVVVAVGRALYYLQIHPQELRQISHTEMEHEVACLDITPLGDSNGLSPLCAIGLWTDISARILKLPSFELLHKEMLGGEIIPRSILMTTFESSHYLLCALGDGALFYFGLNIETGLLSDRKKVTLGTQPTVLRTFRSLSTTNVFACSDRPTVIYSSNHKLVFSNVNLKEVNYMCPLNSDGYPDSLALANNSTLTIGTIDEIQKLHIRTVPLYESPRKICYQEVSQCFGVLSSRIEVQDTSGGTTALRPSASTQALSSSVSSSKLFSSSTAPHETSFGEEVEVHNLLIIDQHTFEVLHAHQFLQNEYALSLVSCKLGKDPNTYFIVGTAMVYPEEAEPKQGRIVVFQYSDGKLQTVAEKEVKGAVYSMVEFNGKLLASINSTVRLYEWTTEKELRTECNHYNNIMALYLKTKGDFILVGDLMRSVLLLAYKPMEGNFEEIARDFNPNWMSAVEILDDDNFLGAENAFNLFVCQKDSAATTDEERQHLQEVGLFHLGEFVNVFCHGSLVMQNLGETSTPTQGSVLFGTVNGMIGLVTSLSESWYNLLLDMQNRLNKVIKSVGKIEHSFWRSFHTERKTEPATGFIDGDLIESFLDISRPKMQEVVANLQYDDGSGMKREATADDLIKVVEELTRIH

Structure (SMILES): O=C1CCC(N2Cc3cc(C4CCN(Cc5ccccc5)CC4)ccc3C2=O)C(=O)N1 (centres unmarked) [Compound I-57, 3-(5-(1-benzylpiperidin-4-yl)-1-oxoisoindolin-2-yl)piperidine-2,6-dione]
- degradation of IKZF2 (IKZF2): potent and specific degrader; also recorded: potent and specific degradation
- increase in AUC with dose ([1]; above 100 mg/kg): less than dose proportional
- increase in AUC with dose ([1]; between 10 mg/kg and 100 mg/kg): slightly over-proportional
- maximum recommended starting dose (MRSD) in humans [2]: 100 mg
- human dose required for similar exposure (AUC) ([3]; exposure associated with mortality and toxicity in rats at 300 mg/kg, human PK model): ~5,000 mg QD
- urinary bladder findings ([3]; rat, in vivo, 300 mg/kg/day): Degenerative changes
- doses at which kidney toxicity was evident ([3]; rats): > 100 mg/kg/day
- doses at which mortality occurred ([3]; rats, females): > 300 mg/kg/day
- metabolic stability [4]: very stable
- AUC0-24 (unbound) [5, 7]: 56.8 ng·h/mL
- AUC0-24/D (unbound) [5, 7]: 567 (ng · h/mL)/(mg/kg)
- Cmax (unbound) [5, 7]: 7.10 ng/mL
- Cmax/D (unbound) [5, 7]: 71.0 (ng/mL)/(mg/kg)
- AUC0-24 (unbound) [5, 8]: 63.5 ng·h/mL
- AUC0-24/D (unbound) [5, 8]: 634 (ng · h/mL)/(mg/kg)
- Cmax (unbound) [5, 8]: 11.0 ng/mL
- Cmax/D (unbound) [5, 8]: 110 (ng/mL)/(mg/kg)
- AUC0-24 (unbound) [5, 9]: 2840 ng·h/mL
- AUC0-24/D (unbound) [5, 9]: 946 (ng · h/mL)/(mg/kg)
- Cmax (unbound) [5, 9]: 523 ng/mL
- Cmax/D (unbound) [5, 9]: 175 (ng/mL)/(mg/kg)
- AUC0-24 (unbound) [5, 10]: 78.1 ng·h/mL
- AUC0-24/D (unbound) [5, 10]: 782 (ng · h/mL)/(mg/kg)
- Cmax (unbound) [5, 10]: 13.1 ng/mL
- Cmax/D (unbound) [5, 10]: 131 (ng/mL)/(mg/kg)
- AUC0-24 (unbound) [5, 11]: 96.4 ng·h/mL
- AUC0-24/D (unbound) [5, 11]: 965 (ng · h/mL)/(mg/kg)
- Cmax (unbound) [5, 11]: 18.0 ng/mL
- Cmax/D (unbound) [5, 11]: 180 (ng/mL)/(mg/kg)
- AUC0-24 (unbound) [5, 12]: 3460 ng·h/mL
- AUC0-24/D (unbound) [5, 12]: 1150 (ng · h/mL)/(mg/kg)
- Cmax (unbound) [5, 12]: 504 ng/mL
- Cmax/D (unbound) [5, 12]: 169 (ng/mL)/(mg/kg)
- human dose anticipated to correspond to exposure levels ([5]; exposure levels for 3 mg/kg in cynomolgus monkeys): ~100 mg QD
- AUC24 h (unbound) ([6]; single oral dose 0.01 mg/kg): 14.1 ± 4.72 ng·h/mL
- AUC24 h/Dose (unbound) ([6]; single oral dose 0.01 mg/kg): 1410 ± 472 (ng · h/mL)/(mg/kg)
- Cmax (unbound) ([6]; single oral dose 0.01 mg/kg): 2.11 ± 0.69 ng/mL
- Cmax/Dose (unbound) ([6]; single oral dose 0.01 mg/kg): 211 ± 69.1 (ng/mL)/(mg/kg)
- AUC24 h (unbound) ([6]; single oral dose 0.1 mg/kg): 102 ± 13.2 ng·h/mL
- AUC24 h/Dose (unbound) ([6]; single oral dose 0.1 mg/kg): 1020 ± 136 (ng · h/mL)/(mg/kg)
- Cmax (unbound) ([6]; single oral dose 0.1 mg/kg): 13.4 ± 2.77 ng/mL
- Cmax/Dose (unbound) ([6]; single oral dose 0.1 mg/kg): 134 ± 27.7 (ng/mL)/(mg/kg)
- AUC24 h (unbound) ([6]; single oral dose 1 mg/kg): 610 ± 236 ng·h/mL
- AUC24 h/Dose (unbound) ([6]; single oral dose 1 mg/kg): 610 ± 236 (ng · h/mL)/(mg/kg)
- Cmax (unbound) ([6]; single oral dose 1 mg/kg): 102 ± 45.3 ng/mL
- Cmax/Dose (unbound) ([6]; single oral dose 1 mg/kg): 102 ± 45.3 (ng/mL)/(mg/kg)
- dose proportionality of observed exposures ([6]; single oral dose of 0.01, 0.1 or 1 mg/kg): slightly less than dose proportional
